In brackets after ≈: the same amount, converted by molar mass. Like-named read-outs stand apart in the source and are kept apart here.
Experiments:
[1] = test system: Escherichia coli; test: Bacterial growth assay and MIC determination, E. coli; format: cell-based; settings: Escherichia coli, serum −, read-out: MIC
Method: (§1) Strains of Escherichia coli, Staphylococcus aureus and Staphylococcus epidermidis, were grown overnight in 1% Bacto tryptone medium (BD, Sparks, Md.). Streptococcus pyogenes was grown overnight in Bacto Todd Hewitt Broth medium (BD, Sparks, Md.). Cultures were then diluted 1:1,000 in fresh assay medium supplemented with or without 20% fetal bovine serum (FBS; HyClone, Celbio, Logan, Utah) and added to 96-well sterile enzyme-linked immunosorbent assay (ELISA) plates (100 μl per well). The compounds to be tested were diluted in the medium without serum and added to the bacteria (100 μl per well). Plates were incubated at 37° C., and bacterial growth was monitored over time by reading the optical density at 490 nm using a microplate reader (model 450; Bio-Rad Laboratories Inc., Hercules, Calif.). Streptococcus pneumoniae strains were grown to mid-log phase (OD620 of 0.3) and stored in 15% glycerol at […] till further use. Minimal inhibitory concentration (MIC) of antibiotics was determined according to standard procedures. Bacteria were diluted 10-fold in Mueller-Hinton medium (BD, Sparks, Md.) and added to 96-well sterile ELISA plates (150 μl per well). The compounds to be tested were diluted in the medium without serum and added to the bacteria (150 μl per well). Plates were incubated overnight at 37° C. in 5% CO2. The MIC was defined as the lowest concentration of compound at which no growth was visible with the naked eye.

[2] = test system: Streptococcus pneumoniae; test: MIC determination, S. pneumoniae; format: cell-based; settings: for MIC: Streptococcus pneumoniae
Method: Streptococcus pneumoniae strains were grown to mid-log phase (OD620 of 0.3) and stored in 15% glycerol at […] till further use. Minimal inhibitory concentration (MIC) of antibiotics was determined according to standard procedures. Bacteria were diluted 10-fold in Mueller-Hinton medium (BD, Sparks, Md.) and added to 96-well sterile ELISA plates (150 μl per well). The compounds to be tested were diluted in the medium without serum and added to the bacteria (150 μl per well). Plates were incubated overnight at 37° C. in 5% CO2. The MIC was defined as the lowest concentration of compound at which no growth was visible with the naked eye.

[3] = test system: Staphylococcus aureus; test: Bacterial growth assay and MIC determination, S. aureus; format: cell-based; settings: for antibiotic activity when tested in the presence of serum: 10% serum; for MIC: Staphylococcus aureus
Method: as §1

[4] = test system: Plasmodium falciparum NF54 parasites; test: P. falciparum asexual blood stage replication assay (SYBR Green); format: cell-based; settings: NF54, 10% human serum, 72 incubation
Method: Compounds were tested on their ability to inhibit replication of the human malaria parasite Plasmodium falciparum. To this end, Plasmodium falciparum NF54 parasites were cultured in RPMI1640 medium supplemented with 367 μM hypoxanthine, 25 mM HEPES, 25 mM sodiumbicarbonate and 10% human type A serum in an automated large-scale culture system as described before (Transactions of the Royal Society of Tropical Medicine and Hygiene, 1982. 76: p. 812-818). Compounds were diluted in DMSO and subsequently in culture medium to reach a DMSO concentration of 0.2%. 50 μl of diluted compound was transferred to a black 96 well plate. A culture of P. falciparum strain NF54 malaria parasites was diluted to a parasitaemia of 0.5% and a hematocrit of 3%. 50 μl of this diluted culture was added to each well in the 96 well plate._The outermost wells of the plate were filled with sterile water to prevent evaporation. The established antimalarial dihydroartemisinin (DHA) in DMSO acted as a positive control (MIN signal), and 0.1% DMSO acted as a negative control (MAX signal). The plates were incubated for 72 at 37° C., 3% 02, 5% CO2, 93% N2. Changes in parasite replication relative to the controls were monitored using the DNA-marker SYBR Green as described previously (Antimicrob Agents Chemother 48:1803-6). Data were analyzed by logistic regression using the formula: Y=Bottom+(Top-Bottom)/(1+10̂((Log IC50−X)*HillSlope)) and a least squares method to find the best fit.
Using similar methods, IC50 values were determined for a variety of inverted pantothenamides, as listed in table 1 (see section: ‘Detailed description of the invention’)

[5] = test system: Streptococcus pyogenes; test: Bacterial growth assay and MIC determination, S. pyogenes; format: cell-based; settings: Streptococcus pyogenes; S. pyogenes, serum −; read-out: MIC
Method: as §1

[6] = test system: Staphylococcus epidermidis; test: Bacterial growth assay and MIC determination, S. epidermidis; format: cell-based; settings: for MIC: Staphylococcus epidermidis
Method: as §1

[7] = Pharmacokinetic study in rats; format: in vivo; settings: rat, blood, 50 mg/kg in saline, oral administration
Method: To address the question if increased stability would also lead to improved bioavailability in vivo, a pharmacokinetic study was performed. Briefly, the pantothenamides N5-Pan (an antibacterial compound) and CXP18.3-002 (an antimalarial compound), and their corresponding inverted amides CXP18.6-013 and CXP18.6-006 were administered to rats at 50 mg/kg dissolved in saline. Blood samples were collected from 3 rats before the experiment and at 0.25, 0.5, 1, 2, 4, 6, 8, 12 and 24 h. The concentrations of the compounds were analyzed by LC-MS/MS (AB Sciex API-4000 system). Data were analyzed by the Non-compartmental analysis tool of Phoenix WinNonlin (Version 6.3).

[8] = test system: P. falciparum gametocytes; test: Gametocyte female gametogenesis capacity assay (Pfs25 AlphaLISA); format: cell-based; settings: Plasmodium falciparum; 72 hours incubation, Table 3; read-out: Gametocyte gametogenesis capacity (Pfs25) IC50
Method: To monitor compound effects on the ability of a gametocyte to form a female gamete, day 11 (stage IV) gametocytes were seeded at a density of 4×10^5 gametocytes per well in a V-bottom plate in 50 μl culture medium. 50 μl of diluted compound was added to the gametocytes (0.1% DMSO final concentration) and plates were incubated for 72 hours at 37° C., 98% humidity, 93% N2, 4% CO2 and 3% O2. Subsequently, gametogenesis was induced by adding xanthurenic acid to a final concentration of 40 μM and plates were incubated for 16 hours at 20° C. Gametes were detected in a homogeneous proximity immunoassay on basis of Pfs25 expression by use of AlphaLISA technology (Perkin Elmer). All steps were performed at 20° C. Gametes were washed twice with PBS, lysed for 15 min in 10 μl 10 mM Tris pH 8.0/1% laurylsarcosyl/1 mM phenylmethanesulfonyl fluoride and combined with 10 μl 5 nM biotinylated mouse anti-Pfs25 monoclonal antibody 32F6244 in a white 384 well optiplate (Perkin Elmer). After 1 hour incubation 15 μl of 33 μg/ml acceptorbeads coated with mouse anti-Pfs25 monoclonal antibody 32F81 were added. After 1 hour incubation, 15 μl 33 μg/ml Streptavidin-conjugated donorbeads were added. Finally, after 1 hour incubation luminescence signals were monitored at the 615 nm emission wavelength following excitation at 680 nm using a fluorometer (Biotek Synergy 2). All compounds were tested in duplicate (24 hr) or triplicate (1 and 72 hr). Controls included MIN (0.1 μM epoxomicin) and MAX (0.1% DMSO). Data were analyzed by logistic regression using the formula: Y=Bottom+(Top−Bottom)/(1+10̂((Log IC50−X)*HillSlope)) and a least squares method to find the best fit.

[9] = test system: P. falciparum gametocytes; test: microbe, parasite or virus in culture; format: cell-based, Plasmodium falciparum; settings: Plasmodium falciparum; 72 hour incubation; read-out: Gametocyte viability (pLDH) IC50
Method: Compounds were tested for their ability to affect the viability of gametocytes, the sexually committed blood stages of P. falciparum that underlie transmission to the mosquito vector. To this end, two different assays were performed. The first assay monitored pLDH activity as a measure of viability of gametocytes (J Antimicrob Chemother. 2013 September; 68(9):2048-58). The second assay monitored the ability of gametocytes to form a female gamete by detection of the gamete-specific marker Pfs25. Plasmodium falciparum NF54 parasites were cultured in RPMI1640 medium supplemented with 367 μM hypoxanthine, 25 mM HEPES, 25 mM sodiumbicarbonate and 10% human type A serum in an automated large-scale culture system as described before (Transactions of the Royal Society of Tropical Medicine and Hygiene, 1982. 76: p. 812-818). Cultures were treated with 50 mM N-acetyl-D-glucosamine from day 4 till day 9 to kill asexual parasites. On day 11 gametocytes were isolated by discontinuous 63% Percoll gradient centrifugation. Compounds were diluted in DMSO and subsequently in culture medium to reach a DMSO concentration of 0.2%. To measure the effect of compounds of pLDH activity, gametocytes were seeded at a density of 3.5×10^4 gametocytes per well in a black 384 well plate in 30 μl of culture medium, and 30 μl of diluted compound was added. Following a 72 hour incubation at 37° C., 98% humidity, 93% N2, 4% CO2 and 3% O2, gametocyte viability was measured by a modified plasmodium lactate dehydrogenase assay by using resazurin as a substrate as previously described (Nature, 2013. 504(7479): p. 248-53). Assays were performed in quadruplicate (two different plates with two different gametocyte batches) and all plates included controls MIN (1 μM DHA), MAX (0.1% DMSO) and a serial dilution of reference compound dihydroartemisinin (DHA).

[10] = S. pneumoniae, serum −, read-out: MIC
[11] = S. aureus, serum + (10% serum), read-out: MIC
[12] = S. aureus, serum −, read-out: MIC
[13] = Table 1, most sensitive species S. aureus (SA), read-out: MIC (μg/ml) for most sensitive bacterial species
[14] = S. epidermidis, serum −, read-out: MIC
[15] = Table 1, most sensitive species S. epidermidis (SE), read-out: MIC (μg/ml) for most sensitive bacterial species

Row | MIC [1] | MIC [2, 10] | MIC [3, 11] | MIC [3, 12] | MIC [3, 13] | IC50 [4] | MIC [5] | MIC [6, 14] | MIC [6, 15] | IC50 [8] | IC50 [9] | Compound | activity of inverted pantothenamide compared to the parent compound ([2]; S. pneumoniae) | antibiotic activity when tested in the presence of serum ([3]; S. aureus) | AUC(0-inf) [7] | Cmax [7] | Tmax [7] | half-life ([7]; elimination phase) | MIC ([2]; Table 1, S. pneumoniae (SPn), read-out: MIC (μg/ml) for most sensitive bacterial species) | activity of inverted pantothenamide compared to the parent compound ([6]; S. epidermidis)
1 | > 256 µg/mL | > 32 µg/mL | 4 µg/mL | 1 µg/mL (≈ 3.16 µM) | 1 µg/mL (≈ 3.16 µM) | 0.34 µM | 32 µg/mL (≈ 101 µM) | 16 µg/mL (≈ 50.6 µM) |  |  |  | CCCCCCCC(=O)NCCNC(=O)[C@H](O)C(C)(C)CO [CXP18.6-012] | loss of activity | retained activity |  |  |  |  |  | 
2 | > 256 µg/mL | > 32 µg/mL | 1 µg/mL | 1 µg/mL (≈ 2.9 µM) | 1 µg/mL (≈ 2.9 µM) | 7.5 µM | 32 µg/mL (≈ 92.9 µM) | 1 µg/mL (≈ 2.9 µM) | 1 µg/mL (≈ 2.9 µM) |  |  | CCCCCCCCCC(=O)NCCNC(=O)[C@H](O)C(C)(C)CO [CXP18.6-014] |  | retained activity |  |  |  |  |  | 
3 |  |  |  |  |  | 0.042 µM |  |  | 2 µg/mL (≈ 5.64 µM) | 17 nM | 42 nM | Cc1ccc(CCC(=O)NCCNC(=O)[C@H](O)C(C)(C)CO)c(F)c1 [CXP18.6-064] |  |  |  |  |  |  |  | 

Row | Compound | MIC [1] | MIC [2, 10] | MIC [3, 11] | MIC [3, 12] | MIC [3, 13] | IC50 [4] | MIC [5] | MIC [6, 14] | MIC [6, 15] | IC50 [8] | IC50 [9] | activity of inverted pantothenamide compared to the parent compound ([2]; S. pneumoniae) | antibiotic activity when tested in the presence of serum ([3]; S. aureus) | AUC(0-inf) [7] | Cmax [7] | Tmax [7] | half-life ([7]; elimination phase) | MIC ([2]; Table 1, S. pneumoniae (SPn), read-out: MIC (μg/ml) for most sensitive bacterial species) | activity of inverted pantothenamide compared to the parent compound ([6]; S. epidermidis)
4 | CCCCCC(=O)NCCNC(=O)[C@H](O)C(C)(C)CO [CXP18.6-013] | > 256 µg/mL | 4 µg/mL (≈ 13.9 µM) |  | 32 µg/mL (≈ 111 µM) |  | 0.63 µM | 2 µg/mL (≈ 6.94 µM) | 1 µg/mL (≈ 3.47 µM) | 1 µg/mL (≈ 3.47 µM) |  |  |  |  | 11600 ng·h/mL | 12100 ng/mL | 19.8 min | 354 min | 4 µg/mL (≈ 13.9 µM) | gain of antimicrobial activity

From US20180282279A1, “Pantothenamide Analogues” (Radboud Universitair Medisch Centrum, priority 2014, published 2018)
